# Assays:
# [1] = Storage in open vials at 40° C. and 75% r.H. (stability, HPLC); type: physicochemical
# Procedure: Fesoterodine hydrogen fumarate, a granulate containing Fesoterodine hydrogen fumarate and xylitol in a weight-ratio of 10:90, as well as a composition comprising Fesoterodine hydrogen fumarate and xylitol were stored in open vials (25 ml brown glass bottles) for up to 12 weeks at 40° C. and 75% r.H. The results are shown in Table 4 below.
# The degradation of Fesoterodine was measured by HPLC. The following conditions were used to measure degradation products in the stability testing of Fesoterodine hydrogen fumarate: • Column: Polaris C18-Ether, 3 μm, 250 mm×4.6 mm • Eluent A: Water/methanesulfonic acid 1000:0.5 (v/v) • Eluent B: Acetonitrile/methanesulfonic acid 1000:0.5 (v/v) • Typical gradient profile:
# • Column temperature: 35° C. • Flow rate: 1.2 mL/min • Detection wavelength: 220 nm • Injection volume: 20 μL
# The retention time of the Active Metabolite was about 4.1 min (rrt=0.50); response factor: 1.4.
# Evaluation of the HPLC results was by the area percent method.
# A comparison of the observed average purity of a Fesoterodine-containing granulate and a corresponding composition as compared to pure Fesoterodine after open storage under stress conditions is set out in Table 4, wherein values are indicated in % of Fesoterodine hydrogen fumarate remaining at various times.
# [2] = Stability of blends of Fesoterodine with sugar alcohols / lactose; type: physicochemical
# Procedure: Blends of Fesoterodine hydrogen fumarate with xylitol, sorbitol, mannitol and maltitol were stored for 6 weeks and 3 months in closed vials at 25° C. and 60% r.H., in closed vials at 40° C. and 75% r.H., or in open vials at 40° C. and 75% r.H. and then tested for stability by measuring the purity of Fesoterodine. The initial purity of the Fesoterodine in the blends was 99.7%.
# [3] = system: healthy male and female human subjects; assay: Electrocardiographic effects (QT) of Fesoterodine formulations; type: in vivo; details: for QTc outlier analyses vs placebo: three days of treatment
# Procedure: Fesoterodine formulations were administered orally to steady state at dosages of 4 mg and 28 mg per day to healthy male and female human subjects and the effect of such administration on QT values was determined.
# The Fesoterodine 4 mg formulation was as follows. Higher dosage levels were obtained by administering multiple 4 mg formulations.
# Steady state was determined by pharmacokinetic analysis of the Active Metabolite. Assay sensitivity was shown by a significant increase from baseline in QTcF and QTcI after multiple doses of moxifloxacin. The mean time-averaged QTcF increased by 8.6 ms after three days of treatment with moxifloxacin.
# The study design was double-blind, single-site, randomized, placebo- and positive controlled, parallel. Two hundred and fifty-six male and female subjects were assigned to one of the following four treatment groups (N=64 each; at least 50% female): • Fesoterodine 4 mg.day • Fesoterodine 28 mg/day • Moxifloxacin 400 mg/day • Placebo
# Subjects were administered 3 days of one of the above four treatments. Three 12-lead ECGs were downloaded from an H-12 flash card (data carrier) at each of the following time points on Days −1, 1, and 3: 1, 2, 3, 4, 6, 8, 10, 12, 14, 16, 18, and 23.5 hours. Plasma samples for the determination of Active Metabolite concentration (and the concentration of further metabolites) were drawn on Day 1 and Day 3 predose and at 1, 2, 3, 4, 6, 8, 12, and 23.5 hours postdose.
# [4] = system: patients with overactive bladder; assay: Efficacy trial of Fesoterodine fumarate vs tolterodine ER and placebo; type: in vivo, human; details: FAS with LOCF; for Number of micturitions per 24 hours, Treatment difference vs Pbo / Urge incontinence per 24 hours, Treatment difference vs Pbo: ANCOVA; for Treatment response (responder rate): end of treatment
# Procedure: The Fesoterodine formulations were as follows: […]
# The trial was conducted in 19 countries. A total of 1135 subjects were randomized and 1103 subjects were included in the full analysis set: 279 in the placebo treatment group, 265 in the 4 mg Fesoterodine treatment group, 276 in the 8 mg Fesoterodine treatment group, and 283 in the 4 mg tolterodine ER treatment group. The mean age of subjects was 57 years. A total of 81% were female and 97% were white. There were no notable differences among the treatment groups with respect to gender, race, age, or weight/BMI.
# [5] = system: patients with overactive bladder; assay: Treatment-emergent adverse events in the efficacy trial (safety set)
# Procedure: A randomized, double-blind, double dummy, placebo and active-controlled trial in adult male and female human subjects was conducted.
# For the safety set, the number of patients were: 283 in the placebo treatment group, 272 in the Fesoterodine 4 mg/day treatment group, and 287 in the Fesoterodine 8 mg/day treatment group.
# [6] = Degradation of Fesoterodine during tablet production and storage; type: physicochemical
# Procedure: Granulates of Fesoterodine with various sugars and sugar alcohols were produced as described in Example 1. These granulates were then used to produce 4 mg tablets according to Example 2.1 and with the composition given as “Example C” in Table 1, as well as wherein the xylitol was substituted with mannitol, maltitol, sorbitol, or lactose.
# [7] = 4 mg/day, N = 272, listed as Feso
# [8] = 8 mg/day, N = 287, listed as Feso
compound,measurement,setting,value
"CC(C)C(=O)Oc1ccc(CO)cc1[C@H](CCN(C(C)C)C(C)C)c1ccccc1 [Fesoterodine, 2-[(1R)-3-(diisopropylamino)-1-phenylpropyl]-4-(hydroxymethyl)phenyl isobutyrate]",% of Fesoterodine hydrogen fumarate remaining (purity),[1]; 1 week,98.56%
same,% of Fesoterodine hydrogen fumarate remaining (purity),[1]; 2 weeks,97.67%
same,% of Fesoterodine hydrogen fumarate remaining (purity),[1]; 4 weeks,94.32%
same,% of Fesoterodine hydrogen fumarate remaining (purity),[1]; 12 weeks,about 50%
same,% of Fesoterodine hydrogen fumarate remaining (purity),"[1]; 12 weeks, listed as Fesoterodine (pure)",50.39%
same,% of Fesoterodine hydrogen fumarate remaining (purity),[1]; Initial,98.96%
same,Purity of Fesoterodine in blends,"[2]; closed vial 25° C., 60% r.H., 3 months",99.7%
same,Purity of Fesoterodine in blends,"[2]; closed vial 25° C., 60% r.H., 6 weeks",99.6%
same,Purity of Fesoterodine in blends,"[2]; closed vial 40° C., 75% r.H., 6 weeks",99.3%
same,Purity of Fesoterodine in blends,"[2]; open vial 40° C., 75% r.H., 3 months",53.1%
same,Purity of Fesoterodine in blends,"[2]; open vial 40° C., 75% r.H., 6 weeks",96.3%
same,mean time-averaged QTcF decrease,"[3]; 4 mg Fesoterodine per day, after three days of treatment",4.6 ms
same,mean time-averaged QTcF decrease,"[3]; 28 mg Fesoterodine per day, after three days of treatment",5.0 ms
same,effect on myocardial repolarization (QTcF and QTcI vs placebo),[3]; multiple 4 mg and 28 mg doses,did not exert an effect on myocardial repolarization
same,QTc outlier analyses vs placebo,[3],no differences between the Fesoterodine treatment groups and placebo
same,"Number of micturitions per 24 hours, Treatment difference vs Pbo",[4]; 4 mg vs Pbo,−0.81
same,"Urge incontinence per 24 hours, Treatment difference vs Pbo",[4]; 4 mg vs Pbo,−0.81
same,"Number of micturitions per 24 hours, ANCOVA Endpoint LS Mean",[4]; 4 mg,−1.76
same,"Urge incontinence per 24 hours, ANCOVA Endpoint LS Mean",[4]; 4 mg,−1.95
same,"Number of micturitions per 24 hours, change from baseline at end of treatment, Mean (SD)",[4]; 4 mg/day,−1.74 (2.66)
same,"Urge incontinence per 24 hours, change from baseline at end of treatment, Mean (SD)",[4]; 4 mg/day,−1.44 (2.75)
same,Treatment response (responder rate),[4]; 4 mg/day,75%
same,"Number of micturitions per 24 hours, Treatment difference vs Pbo",[4]; 8 mg vs Pbo,−0.93
same,"Urge incontinence per 24 hours, Treatment difference vs Pbo",[4]; 8 mg vs Pbo,−1.08
same,"Number of micturitions per 24 hours, ANCOVA Endpoint LS Mean",[4]; 8 mg,−1.88
same,"Urge incontinence per 24 hours, ANCOVA Endpoint LS Mean",[4]; 8 mg,−2.22
same,"Number of micturitions per 24 hours, change from baseline at end of treatment, Mean (SD)",[4]; 8 mg/day,−1.94 (3.15)
same,"Urge incontinence per 24 hours, change from baseline at end of treatment, Mean (SD)",[4]; 8 mg/day,−1.81 (2.35)
same,Treatment response (responder rate),[4]; 8 mg/day,79%
same,incidence of blurred vision,[5]; 4 mg/day,1%
same,incidence of dry throat,[5]; 4 mg/day,1%
same,incidence of urinary retention,[5]; 4 mg/day,1%
same,"Any adverse event, subjects (%)","[5]; 4 mg/day, N = 272",50%
same,"Any adverse event, subjects n","[5]; 4 mg/day, N = 272",135
same,"Constipation, subjects (%)","[5]; 4 mg/day, N = 272",3%
same,"Constipation, subjects n","[5]; 4 mg/day, N = 272",9
same,"Fatigue, subjects (%)","[5]; 4 mg/day, N = 272",(<1) %
same,"Fatigue, subjects n","[5]; 4 mg/day, N = 272",1
same,"Headache, subjects (%)","[5]; 4 mg/day, N = 272",(4) %
same,"Headache, subjects n","[5]; 4 mg/day, N = 272",12
same,"Keratoconjunctivitis sicca, subjects (%)","[5]; 4 mg/day, N = 272",2%
same,"Keratoconjunctivitis sicca, subjects n","[5]; 4 mg/day, N = 272",6
same,"Mouth dry, subjects (%)","[5]; 4 mg/day, N = 272",22%
same,"Mouth dry, subjects n","[5]; 4 mg/day, N = 272",59
same,"Nasopharyngitis, subjects (%)","[5]; 4 mg/day, N = 272",(3) %
same,"Nasopharyngitis, subjects n","[5]; 4 mg/day, N = 272",8
same,"Urinary tract infection, subjects (%)","[5]; 4 mg/day, N = 272",(3) %
same,"Urinary tract infection, subjects n","[5]; 4 mg/day, N = 272",8
same,"Any adverse event, subjects (%)",[5]; [7],(50) %
same,"Constipation, subjects (%)",[5]; [7],(3) %
same,"Keratoconjunctivitis sicca, subjects (%)",[5]; [7],(2) %
same,"Mouth dry, subjects (%)",[5]; [7],(22) %
same,incidence of blurred vision,[5]; 8 mg/day,1%
same,incidence of dry throat,[5]; 8 mg/day,3%
same,incidence of urinary retention,[5]; 8 mg/day,1%
same,"Any adverse event, subjects (%)","[5]; 8 mg/day, N = 287",58%
same,"Any adverse event, subjects n","[5]; 8 mg/day, N = 287",167
same,"Constipation, subjects (%)","[5]; 8 mg/day, N = 287",5%
same,"Constipation, subjects n","[5]; 8 mg/day, N = 287",13
same,"Fatigue, subjects (%)","[5]; 8 mg/day, N = 287",(<1) %
same,"Fatigue, subjects n","[5]; 8 mg/day, N = 287",1
same,"Headache, subjects (%)","[5]; 8 mg/day, N = 287",(2) %
same,"Headache, subjects n","[5]; 8 mg/day, N = 287",7
same,"Keratoconjunctivitis sicca, subjects (%)","[5]; 8 mg/day, N = 287",4%
same,"Keratoconjunctivitis sicca, subjects n","[5]; 8 mg/day, N = 287",12
same,"Mouth dry, subjects (%)","[5]; 8 mg/day, N = 287",34%
same,"Mouth dry, subjects n","[5]; 8 mg/day, N = 287",97
same,"Nasopharyngitis, subjects (%)","[5]; 8 mg/day, N = 287",(2) %
same,"Nasopharyngitis, subjects n","[5]; 8 mg/day, N = 287",5
same,"Urinary tract infection, subjects (%)","[5]; 8 mg/day, N = 287",(3) %
same,"Urinary tract infection, subjects n","[5]; 8 mg/day, N = 287",9
same,"Any adverse event, subjects (%)",[5]; [8],(58) %
same,"Constipation, subjects (%)",[5]; [8],(5) %
same,"Keratoconjunctivitis sicca, subjects (%)",[5]; [8],(4) %
same,"Mouth dry, subjects (%)",[5]; [8],(34) %
"Cc1ccc(O)c([C@H](CCN(C(C)C)C(C)C)c2ccccc2)c1 [Tolt, tolterodine, reference compound]","Number of micturitions per 24 hours, Treatment difference vs Pbo",[4]; 4 mg vs Pbo,−0.78
same,"Urge incontinence per 24 hours, Treatment difference vs Pbo",[4]; 4 mg vs Pbo,−0.60
same,"Number of micturitions per 24 hours, ANCOVA Endpoint LS Mean",[4]; 4 mg,−1.73
same,"Urge incontinence per 24 hours, ANCOVA Endpoint LS Mean",[4]; 4 mg,−1.74
same,"Number of micturitions per 24 hours, change from baseline at end of treatment, Mean (SD)",[4]; 4 mg/day,−1.69 (2.42)
same,"Urge incontinence per 24 hours, change from baseline at end of treatment, Mean (SD)",[4]; 4 mg/day,−1.43 (2.20)
same,Treatment response (responder rate),[4]; 4 mg/day,72%
"COc1c(N2C[C@@H]3CCCN[C@@H]3C2)c(F)cc2c(=O)c(C(=O)O)cn(C3CC3)c12 [moxifloxacin, reference compound]",mean time-averaged QTcF increase,"[3]; moxifloxacin 400 mg/day, after three days of treatment",8.6 ms
same,QTc outlier analyses vs placebo,[3],a higher incidence of QTc outliers
maltitol,hydrolyzation products and total degradation products in tablets prepared with the granulates,[6],1.1-1.7%

# Reference: patent US8088398B2, “Pharmaceutical compositions comprising fesoterodine” (UCB Pharma GmbH, priority 2006, dated 2012)
